Tests used:
MV-4-11 = test: CTG cell survival assay, MV-4-11; assay type: cell-based; details: Homo sapiens, MV4-11, MV-4-11 cells
Procedure, shortened: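 Cells grown in RPMI 1640 with 10% FBS were plated and cultured 24 h at 37 °C, 5% CO2, then treated with compound diluted from 10 mM DMSO stocks. Viable cells were quantified as ATP by CellTiter-Glo luminescence.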

[1] = biological target: PI3K-alpha (PIK3CA/PIK3R1) (Homo sapiens (Human), UniProt P42336); test: PI3K-alpha enzyme activity assay (ADP Glo); assay type: biochemical; details: read-out: Activity of inhibiting PI3K enzyme IC50
Excerpt: 3. PI3K-alpha Enzyme Activity Assay: PI3K alpha-ADP Glo Assay was employed. In the determination of PI3K enzyme activity, the detection kit supplied by Promega (Promega, Cat #: V9101) was used to detect the inhibition effect of the compounds on the activity of PI3K enzyme. The adenosine diphosphate produced during the whole enzymic reactions was quantified. The resulting values were used to calculate the activity of PI3K (Table 1).
3.1 Detection reagents: PIK3CA/PIK3R1 purchased from Invitrogen (Cat #: PV4788): The active kinase was diluted with kinase diluent III; and mixed with bovine serum albumin (BSA) in a ratio of 1:4 (5×dilution). The final BSA concentration was 50 ng/ml; and the compositions of Kinase Detection Solution I were: 25 mM MOPS, pH7.2, 12.5 mM β-glycerophosphate, 25 mM magnesium chloride, 5 mM EGTA, and 2 mM EDTA. Before use, 0.25 mM DTT was added to Kinase Detection Solution I; 250 μM adenosine triphosphate (ATP) Detection solution: 0.55 mg of ATP was dissolved in 4 ml of Kinase Detection Solution I, subdivided in 200 μl/vial and stored at −20° C. Substrate: Phosphatidylinositol (4,5) bis-phosphate; this substrate was diluted with Kinase Detection Solution I to a concentration of 125 μM. Final concentrations were: 10 μM PIP2, 10 μM ATP, 1% DMSO, and 0.0005-10 μM compounds.
a) Experimental Procedure: • 3.2.1 50 μL of the compounds diluted with dimethyl sulfoxide (DMSO) at a concentration of 100 μM were added to the 384-well dilution plate. The compounds were diluted with dimethyl sulfo de (DMSO) in a ratio of 1:3 (10 dilution concentrations plus 1 zero concentration). • 3.2.2 5 μL of the diluted compounds were transferred to the corresponding 384-well black Proxi plate (containing 47.5 μL of detection solution/well), and shaked for several seconds. • 3.2.3 2 μL of 2.5×PI3K working solution was added to 384-well black Proxi plate. • 3.2.4 2 μL of the diluted compounds were added to the detection plate (3 wells for each concentration). • 3.2.5 The plate was incubated at room temperature for 2 h. • 3.2.6 5 μL of ADP Glo Reagent was added. • 3.2.7 The plate was incubated at room temperature for 40 minutes. • 3.2.8 10 μL of the kinase detection reagent was added. • 3.2.9 The plate was incubated at room temperature for 40 minutes. • 3.2.10 The activity was detected by using Envision Reader.
The inhibition of the mTOR […] activity by the compounds ranges in 0.5 to several hundreds nanomoles, see Table 1.

Sequence of PI3K-alpha (PIK3CA/PIK3R1) (P42336 whole entry, looked up): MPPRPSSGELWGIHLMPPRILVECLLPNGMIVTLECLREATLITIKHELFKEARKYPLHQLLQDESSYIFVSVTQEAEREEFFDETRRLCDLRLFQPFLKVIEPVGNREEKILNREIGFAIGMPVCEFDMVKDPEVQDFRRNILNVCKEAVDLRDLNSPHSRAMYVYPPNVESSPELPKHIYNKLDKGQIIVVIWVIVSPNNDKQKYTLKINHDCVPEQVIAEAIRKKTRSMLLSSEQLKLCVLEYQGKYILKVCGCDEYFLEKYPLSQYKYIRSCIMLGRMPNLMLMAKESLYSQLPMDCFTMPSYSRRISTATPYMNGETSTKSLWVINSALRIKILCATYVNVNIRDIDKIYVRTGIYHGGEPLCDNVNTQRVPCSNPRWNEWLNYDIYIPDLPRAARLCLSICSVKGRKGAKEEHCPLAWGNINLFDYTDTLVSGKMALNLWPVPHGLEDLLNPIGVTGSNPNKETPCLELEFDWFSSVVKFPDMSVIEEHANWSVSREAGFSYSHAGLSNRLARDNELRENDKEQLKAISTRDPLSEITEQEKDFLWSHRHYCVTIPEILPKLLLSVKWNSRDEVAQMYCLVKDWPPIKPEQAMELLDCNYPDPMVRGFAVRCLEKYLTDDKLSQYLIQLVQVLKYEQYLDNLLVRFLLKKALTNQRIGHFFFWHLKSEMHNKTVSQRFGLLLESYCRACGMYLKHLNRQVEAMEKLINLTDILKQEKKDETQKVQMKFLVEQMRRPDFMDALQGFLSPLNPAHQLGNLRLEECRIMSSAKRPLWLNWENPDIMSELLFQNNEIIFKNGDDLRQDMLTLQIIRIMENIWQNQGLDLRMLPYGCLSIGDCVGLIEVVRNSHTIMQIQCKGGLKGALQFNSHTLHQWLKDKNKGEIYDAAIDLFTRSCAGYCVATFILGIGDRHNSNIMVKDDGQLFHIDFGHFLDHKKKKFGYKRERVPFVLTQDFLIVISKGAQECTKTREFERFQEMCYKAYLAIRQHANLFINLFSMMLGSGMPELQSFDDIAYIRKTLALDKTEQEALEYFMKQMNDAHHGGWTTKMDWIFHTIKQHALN
Sequence of PI3K-alpha (PIK3CA/PIK3R1) (P27986 whole entry partner, looked up): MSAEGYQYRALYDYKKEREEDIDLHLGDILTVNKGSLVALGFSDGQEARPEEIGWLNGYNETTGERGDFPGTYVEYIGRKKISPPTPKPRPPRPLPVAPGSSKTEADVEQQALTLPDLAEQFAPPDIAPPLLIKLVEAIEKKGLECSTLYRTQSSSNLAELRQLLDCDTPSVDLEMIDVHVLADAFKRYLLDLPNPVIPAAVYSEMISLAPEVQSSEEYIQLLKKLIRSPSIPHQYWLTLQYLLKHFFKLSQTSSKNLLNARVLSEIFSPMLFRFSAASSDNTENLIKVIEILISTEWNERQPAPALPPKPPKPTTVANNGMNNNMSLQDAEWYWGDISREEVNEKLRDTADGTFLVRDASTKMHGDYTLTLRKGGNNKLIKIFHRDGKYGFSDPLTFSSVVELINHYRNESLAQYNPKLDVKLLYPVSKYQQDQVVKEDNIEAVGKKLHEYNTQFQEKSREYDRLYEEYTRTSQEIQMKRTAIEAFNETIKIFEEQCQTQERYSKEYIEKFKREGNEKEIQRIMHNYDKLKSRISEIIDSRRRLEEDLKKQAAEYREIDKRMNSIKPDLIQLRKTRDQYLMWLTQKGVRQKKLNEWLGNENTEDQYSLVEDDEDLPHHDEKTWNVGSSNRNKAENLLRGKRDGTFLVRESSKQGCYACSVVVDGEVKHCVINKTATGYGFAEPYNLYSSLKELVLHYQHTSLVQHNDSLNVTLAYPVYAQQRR

| SMILES | EC50 (MV-4-11) | IC50 [1] |
| --- | --- | --- |
| Cn1cc(-c2ccc(-c3ccc4ncc5c(c4c3)n(C3CCCN(S(C)(=O)=O)C3)c(=O)n5C)cn2)cn1 (centres unmarked) [Example 3, 3-methyl-8-(6-(1-methyl-1H-pyrazol-4-yl)pyridin-3-yl)-1-(1-(methanesulfonyl)piperidin-3-yl)-1H-imidazo[4,5-c]quinolin-2(3H)-one] | < 200 nM | < 10 nM |
| Cn1cc(-c2ccc(-c3ccc4ncc5c(c4c3)n([C@H]3CC[C@@H](O)CC3)c(=O)n5C)cn2)cn1 [Example 18, 1-((1s,4s)-4-hydroxycyclohexyl)-3-methyl-8-(6-(1-methyl-1H-pyrazol-4-yl)pyridin-3-yl)-1H-imidazo[4,5-c]quinolin-2(3H)-one] | < 100 nM | < 10 nM |
| Cn1cc(-c2ccc(-c3ccc4ncc5c(c4c3)n([C@H]3CCN(S(C)(=O)=O)C3)c(=O)n5C)cn2)cn1 [Example 28, (S)-3-methyl-8-(6-(1-methyl-1H-pyrazol-4-yl)pyridin-3-yl)-1-(1-(methanesulfonyl)pyrrolidin-3-yl)-1H-imidazo[4,5-c]quinolin-2(3H)-one] | < 100 nM | < 10 nM |
| Cn1cc(-c2ccc(-c3ccc4ncc5c(c4c3)n([C@@H]3CCCN(S(C)(=O)=O)C3)c(=O)n5C)cn2)cn1 [Example 31, (R)-3-methyl-8-(6-(1-methyl-1H-pyrazol-4-yl)pyridin-3-yl)-1-(1-(methanesulfonyl)piperidin-3-yl)-1H-imidazo[4,5-c]quinolin-2(3H)-one] | < 100 nM | < 10 nM |
